Results: patent US4465851A, “Guanidinocyclohexanecarboxylic acid derivatives” (Nippon Chemiphar Co., Ltd., priority 1981, dated 1984)
Counter-ions that a name gives are not always drawn.

Assays:
guinea pigs ilea [1] = assay: Anti-acetylcholine action; set-up: species or system guinea pig; conditions: Cavia porcellus, read-out: Anti-acetylcholine effect inhibition of contraction; for inhibition at 25 µg/mL: final conc. 25 μg/ml; for inhibition at 50 µg/mL: final conc. 50 μg/ml
Description: (§1) Anti-acetylcholine and anti-histamine effects of the present compounds were examined using guinea pigs ilea by the usual method.

[2] = tested on: ileum of each sensitized guinea pig; assay: Schultz-Dale reaction; conditions: Cavia porcellus, read-out: Inhibition of contraction (Schultz-Dale reaction); for inhibition at 25 µg/mL: final conc. 25 μg/ml; for inhibition at 50 µg/mL: final conc. 50 μg/ml
Protocol: Male guinea pigs were sensitized with bovine serum albumin by Freund's complete adjuvant method. After a lapse of 10 days, the animals were sensitized once more as described above. After two more weeks, an ileum of each sensitized guinea pig was removed and used for experiment. The ileum was equipped in a magnus tube containing each test sample, and 500 μg of bovine serum albumin was added. The contraction of the ileum was determined.

Pancreas kallikrein = Pancreas kallikrein (Sus scrofa, UniProt P00752); assay: Inhibition of pancreas kallikrein (BAEe hydrolysis); type: biochemical; conditions: BAEe substrate, 37° C., 30 minutes, pH 8.0; read-out: Concentration for 50% inhibition (IC50), pancreas kallikrein
Protocol: (§2) Inhibitory effects on the TAMe(N^α -tosyl-L-arginine methyl ester) hydrolytic activity of trypsin, plasmin, plasma kallikrein and thrombin were estimated by Hesterin's method modified by Roberts. Inhibition of the BAEe(N^α -benzoyl-L-arginine ethyl ester) hydrolytic activity of pancreas kallikrein was determined by Hesterin's method after incubation at 37° C. for 30 minutes in a 0.1M borate buffer, pH 8.0. Inhibitory effects on urokinase were determined by the chromotropic acid method after incubation of 60 iu of urokinase with 10 mM AGLMe(acetylglycyl-L-lysine methyl ester) at 37° C. for 30 minutes in a 0.06M phosphate buffer, pH 7.5, containing 0.09M NaCl. Inhibition of chymotrypsin was determined by Hesterin's method after incubation with 15 mM ATE (N^α -acetyl-L-tyrosine ethyl ester) for 30 minutes at 37° C. in a 0.1M borate buffer, pH 8.0.

Chymotrypsin = Chymotrypsin (Bos taurus, UniProt P00766); assay: Inhibition of chymotrypsin (ATE hydrolysis); type: biochemical; conditions: 15 mM ATE, 30 minutes, 37° C., pH 8.0; read-out: Concentration for 50% inhibition (IC50), chymotrypsin
Protocol: as §2

guinea pigs ilea [3] = assay: Anti-histamine action; set-up: species or system guinea pig; conditions: Cavia porcellus, read-out: Anti-histamine effect inhibition of contraction; for inhibition at 25 µg/mL: final conc. 25 μg/ml; for inhibition at 50 µg/mL: final conc. 50 μg/ml
Description: as §1

Urokinase = Urokinase (Homo sapiens, UniProt P00749); assay: Inhibition of urokinase (AGLMe, chromotropic acid method); type: biochemical; conditions: 60 iu urokinase, 10 mM AGLMe, 37° C., 30 minutes, pH 7.5; read-out: Concentration for 50% inhibition (IC50), urokinase
Protocol: as §2

Thrombin = Thrombin (Homo sapiens, UniProt P00734); assay: Inhibition of thrombin (TAMe hydrolysis); type: biochemical; conditions: TAMe substrate; read-out: Concentration for 50% inhibition (IC50), thrombin
Plasma kallikrein = Plasma kallikrein (Homo sapiens, UniProt P03952); assay: Inhibition of plasma kallikrein (TAMe hydrolysis); type: biochemical; conditions: TAMe substrate; read-out: Concentration for 50% inhibition (IC50), plasma kallikrein
Protocol: as §2

Trypsin = target: T1, Trypsin (Bos taurus, UniProt P00760); assay: Inhibition of trypsin (TAMe hydrolysis); type: biochemical; conditions: TAMe substrate; read-out: Concentration for 50% inhibition (IC50), trypsin
T1 sequence (P00760 24-246): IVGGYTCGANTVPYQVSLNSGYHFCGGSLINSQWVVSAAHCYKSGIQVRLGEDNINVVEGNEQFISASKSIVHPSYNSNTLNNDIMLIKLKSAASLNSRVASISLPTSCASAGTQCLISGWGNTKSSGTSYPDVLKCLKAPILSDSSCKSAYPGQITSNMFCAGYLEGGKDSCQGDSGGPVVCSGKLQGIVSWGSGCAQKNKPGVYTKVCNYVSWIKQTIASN
Protocol: as §2

Mast cells [4] = assay: Effects on histamine release from mast cells induced by compound 48/80; type: cell-based; conditions: Mast cell; 10 μg/ml test compound; compound 48/80 induced; read-out: Inhibition of histamine release
Protocol: After incubation for 20 minutes at 37° C., the suspension was cooled to 4° C., and released histamine was determined as described by Shore et al. All samples examined were recognized to cause no disturbance in the fluorometric assay.

Plasmin = Plasmin (Homo sapiens, UniProt P00747); assay: Inhibition of plasmin (TAMe hydrolysis); type: biochemical; conditions: TAMe substrate; read-out: Concentration for 50% inhibition (IC50), plasmin
Protocol: as §2

Mast cells [5] = conditions: Life Sciences 10, 805-812 (1971); Internal Medicine 42(6), 933 (1978); cited from earlier work

Sequence of Plasmin (P00747 97-580 limits assumed, species assumed): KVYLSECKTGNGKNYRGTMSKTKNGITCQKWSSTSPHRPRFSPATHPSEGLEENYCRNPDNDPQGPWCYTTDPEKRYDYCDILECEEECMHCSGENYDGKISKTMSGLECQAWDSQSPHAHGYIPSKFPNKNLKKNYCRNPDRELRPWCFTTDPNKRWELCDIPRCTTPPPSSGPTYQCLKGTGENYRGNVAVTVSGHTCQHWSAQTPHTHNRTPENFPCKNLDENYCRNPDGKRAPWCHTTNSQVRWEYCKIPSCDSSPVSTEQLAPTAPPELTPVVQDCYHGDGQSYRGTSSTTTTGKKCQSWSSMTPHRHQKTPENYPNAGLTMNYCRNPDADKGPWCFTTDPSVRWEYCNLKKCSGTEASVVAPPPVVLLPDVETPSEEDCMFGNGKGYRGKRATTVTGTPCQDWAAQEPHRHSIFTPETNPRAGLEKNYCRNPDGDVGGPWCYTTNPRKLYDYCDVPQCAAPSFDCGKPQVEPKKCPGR
Sequence of Pancreas kallikrein (P00752 15-246 limits assumed): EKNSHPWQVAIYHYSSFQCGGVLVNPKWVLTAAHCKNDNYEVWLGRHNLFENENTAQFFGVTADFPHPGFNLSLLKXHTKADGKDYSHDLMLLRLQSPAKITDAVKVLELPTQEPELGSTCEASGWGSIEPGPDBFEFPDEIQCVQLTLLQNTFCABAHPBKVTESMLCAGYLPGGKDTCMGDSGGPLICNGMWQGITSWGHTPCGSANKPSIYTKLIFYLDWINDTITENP
Sequence of Plasma kallikrein (P03952 20-390 limits assumed, species assumed): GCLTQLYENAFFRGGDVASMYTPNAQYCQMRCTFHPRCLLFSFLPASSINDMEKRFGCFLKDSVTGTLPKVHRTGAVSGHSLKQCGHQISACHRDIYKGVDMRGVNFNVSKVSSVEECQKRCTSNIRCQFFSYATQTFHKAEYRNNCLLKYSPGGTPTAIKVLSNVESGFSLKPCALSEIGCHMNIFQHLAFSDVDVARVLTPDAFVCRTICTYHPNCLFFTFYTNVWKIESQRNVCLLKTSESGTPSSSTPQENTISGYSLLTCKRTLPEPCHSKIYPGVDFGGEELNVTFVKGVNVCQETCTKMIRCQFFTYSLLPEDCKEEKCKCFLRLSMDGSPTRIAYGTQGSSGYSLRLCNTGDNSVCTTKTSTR

IC50 (Pancreas kallikrein) [µM] | IC50 (Chymotrypsin) [µM] | IC50 (Urokinase) [µM] | IC50 (Thrombin) [µM] | SMILES | inhibition at 25 µg/mL (guinea pigs ilea [3]) [%] | inhibition at 50 µg/mL (guinea pigs ilea [3]) [%] | inhibition at 10 µg/mL (Mast cells [4]) [%] | further results
320 | 70 | 260 |  | Cc1ccc(OC(=O)[C@H]2CC[C@H](CNC(=N)N)CC2)cc1 [Compound 3, 4'-Methylphenyl trans-4-guanidinomethylcyclohexanecarboxylate hydrochloride] | 98 | 100 |  | inhibition at 25 µg/mL (guinea pigs ilea [1]): 100%; inhibition at 50 µg/mL (guinea pigs ilea [1]): 100%; inhibition at 25 µg/mL [2]: 83.3%; inhibition at 50 µg/mL [2]: 100%
90 | 12 | 160 | 160 | N=C(N)NC[C@H]1CC[C@H](C(=O)Oc2ccccc2Cl)CC1 [Compound 5, 2'-Chlorophenyl trans-4-guanidinomethylcyclohexanecarboxylate hydrochloride] |  |  |  | IC50 (Plasma kallikrein): 300 µM; IC50 (Trypsin): 390 µM
150 |  |  | 180 | N=C(N)NC[C@H]1CC[C@H](C(=O)Oc2ccc(Br)cc2)CC1 [Compound 6, 4'-Bromophenyl trans-4-guanidinomethylcyclohexanecarboxylate hydrochloride] |  |  |  | IC50 (Trypsin): 260 µM
 |  |  |  | N=C(N)NC[C@H]1CC[C@H](C(=O)Oc2ccc(I)cc2)CC1 [Compound 7, 4'-Iodophenyl trans-4-guanidinomethylcyclohexanecarboxylate hydrochloride] |  |  | 18.4 | 
 |  |  |  | N=C(N)NC[C@H]1CC[C@H](C(=O)Oc2ccc(Cl)cc2)CC1 [Compound 10, 4'-Chlorophenyl trans-4-guanidinomethylcyclohexanecarboxylate hydrochloride] | 100 | 100 |  | inhibition at 25 µg/mL (guinea pigs ilea [1]): 89.8%; inhibition at 50 µg/mL (guinea pigs ilea [1]): 100%; inhibition at 25 µg/mL [2]: 100%; inhibition at 50 µg/mL [2]: 100%
400 |  | 30 |  | Cc1ccc(C(C)C)c(OC(=O)[C@H]2CC[C@H](CNC(=N)N)CC2)c1 [Compound 13, 2'-iso-Propyl-5'-methylphenyl trans-4-guanidinomethylcyclohexanecarboxylatehydrochloride] |  |  |  | IC50 (Plasmin): 400 µM
130 | 100 |  | 240 | Cc1cc(OC(=O)[C@H]2CC[C@H](CNC(=N)N)CC2)c(C(C)C)cc1Cl [Compound 14, 2'-iso-Propyl-4'-chloro-5'-methylphenyl trans-4-guanidinomethylcyclohexanecarboxylate hydrochloride] |  |  | 38.8 | IC50 (Plasmin): 400 µM; IC50 (Trypsin): 190 µM
25 | 2.8 | 31 | 95 | N=C(N)NC[C@H]1CC[C@H](C(=O)Oc2ccc([N+](=O)[O-])cc2)CC1 [Compound 15, 4'-Nitrophenyl trans-4-guanidinomethylcyclohexanecarboxylate hydrochloride] |  |  |  | IC50 (Plasma kallikrein): 300 µM; IC50 (Trypsin): 90 µM
30 |  | 110 |  | N#Cc1ccccc1OC(=O)[C@H]1CC[C@H](CNC(=N)N)CC1 [Compound 21, 2'-Cyanophenyl trans-4-guanidinomethylcyclohexanecarboxylate hydrochloride] |  |  |  | IC50 (Plasmin): 200 µM
 |  |  |  | N=C(N)NC[C@H]1CC[C@H](C(=O)Oc2ccc3c(c2)CCC3)CC1 [Compound 23, 5'-Indanyl trans-4-guanidinomethylcyclohexanecarboxylate hydrochloride] |  |  | 12.7 | 
20 | 6 | 50 | 230 | N=C(N)NC[C@H]1CC[C@H](C(=O)Oc2ccc3ccc(=O)oc3c2)CC1 [Compound 24, 7'-(2'-Oxochromenyl)trans-4-guanidinomethylcyclohexanecarboxylate hydrochloride] |  |  |  | 
 |  |  |  | N=C(N)NC[C@H]1CC[C@H](C(=O)Oc2ccc(Cl)c3ccccc23)CC1 [Compound 28, 4'-Chloronaphthyl trans-4-guanidinomethylcyclohexanecarboxylate hydrochloride] | 99.7 | 100 | 60.9 | inhibition at 25 µg/mL (guinea pigs ilea [1]): 68%; inhibition at 50 µg/mL (guinea pigs ilea [1]): 76%; inhibition at 25 µg/mL [2]: 80%; inhibition at 50 µg/mL [2]: 100%
 |  |  |  | N=C(N)NC[C@H]1CC[C@H](C(=O)Oc2ccc3ccccc3c2[N+](=O)[O-])CC1 [Compound 29, 2'-(1'-Nitro)naphthyl trans-4-guanidinomethylcyclohexanecarboxylate hydrochloride] |  |  | 20.6 | inhibition at 25 µg/mL (guinea pigs ilea [1]): 52%; inhibition at 50 µg/mL (guinea pigs ilea [1]): 80%
 |  |  |  | N=C(N)NC[C@H]1CC[C@H](C(=O)Oc2ccccc2)CC1 [Compound A, Phenyl trans4-guanidinomethylcyclohexanecarboxylate hydrochloride, reference compound] | 100 | 100 | 5 | inhibition at 25 µg/mL [2]: 0%; inhibition at 50 µg/mL [2]: 0%
 |  |  |  | O=C(O)c1cc(=O)c2c(OCC(O)COc3cccc4oc(C(=O)O)cc(=O)c34)cccc2o1 [DSCG, Disodium cromoglycate, reference compound] | 0 | 0 | 10 | inhibitory effects on histamine release from mast cells (Mast cells [5]): has inhibitory effects on histamine release from mast cells
